Results published in patent US10765114B2, “4-amino-6-(pyridyl and 2-substitutedphenyl)-picolinates and 6-amino-2-(pyridyl and 2-substitutedphenyl)-pyrimidine-4-carboxylates and their use as herbicides” (Dow AgroSciences LLC, priority 2013, dated 2020).

Tests used:
Assay in all cases: Post-Emergent Test III (Wheat and Barley)
[1] = system: LAMPU (purple deadnettle); format: in vivo, Lamium purpureum; conditions: for Visual Growth Reduction (%) 21 Days After Application, LAMPU: postemergence
How it was run: (§1)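 Greenhouse plants (~14 h photoperiod, 18/17 °C) at second-third true leaf stage were track-sprayed at 187 L/ha with acetone/DMSO-based spray containing Agri-Dex crop oil and X-77. Rates ran from the high rate down to 1/16×. Injury was scored visually after 21 days (0-100%); GR values came from probit analysis.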

[2] = system: VERPE (Persian speedwell); format: in vivo, Veronica persica; conditions: for Visual Growth Reduction (%) 21 Days After Application, VERPE: postemergence
How it was run: as §1

TRZSS = format: in vivo
How it was run: as §1

HORSS = format: in vivo
How it was run: as §1

BRSSS = format: in vivo; conditions: for Visual Growth Reduction (%) 21 Days After Application, BRSSS: postemergence
How it was run: as §1

KCHSC (kochia) = format: in vivo, Kochia scoparia
How it was run: as §1

SASKR (Russian thistle) = format: in vivo, Salsola tragus; conditions: for Visual Growth Reduction (%) 21 Days After Application, SASKR: postemergence
How it was run: as §1

APESV (windgrass) = format: in vivo, Apera spica-venti
How it was run: as §1

[3] = effective dose for growth reduction of 50 percent, probit analysis
[4] = effective dose for growth reduction of 80 percent, probit analysis
[5] = effective dose for growth reduction of 90 percent, probit analysis
[6] = effective dose for growth reduction of 10 percent, probit analysis
[7] = effective dose for growth reduction of 20 percent, probit analysis

COC(=O)c1nc(-c2ccc(Cl)c(F)c2C)cc(N)c1Cl [Compound 73]
Visual Growth Reduction (%) 21 Days After Application, LAMPU ([1]; 35 g ai/ha): A (95-100)
Visual Growth Reduction (%) 21 Days After Application, LAMPU ([1]; 70 g ai/ha): A (95-100)
Visual Growth Reduction (%) 21 Days After Application, LAMPU ([1]; 140 g ai/ha): A (95-100)
GR50, LAMPU [1, 3]: <17.5 g ai/ha
GR80, LAMPU [1, 4]: <17.5 g ai/ha
GR90, LAMPU [1, 5]: <17.5 g ai/ha
Visual Growth Reduction (%) 21 Days After Application, VERPE ([2]; 35 g ai/ha): G (0-29)
Visual Growth Reduction (%) 21 Days After Application, VERPE ([2]; 70 g ai/ha): G (0-29)
Visual Growth Reduction (%) 21 Days After Application, VERPE ([2]; 140 g ai/ha): F (30-44)
GR50, VERPE [2, 3]: >140 g ai/ha
GR80, VERPE [2, 4]: >140 g ai/ha
GR90, VERPE [2, 5]: >140 g ai/ha
pest or weed control at 35 g/ha (TRZSS; Triticum aestivum, post-emergence, 504 h, 35 g ai/ha, postemergence, read-out: Visual Growth Reduction (%) 21 Days After Application, TRZSS): 60 to 74%
pest or weed control at 70 g/ha (TRZSS; Triticum aestivum, post-emergence, 504 h, 70 g ai/ha, postemergence, read-out: Visual Growth Reduction (%) 21 Days After Application, TRZSS): 60 to 74%
pest or weed control at 140 g/ha (TRZSS; Triticum aestivum, post-emergence, 504 h, 140 g ai/ha, postemergence, read-out: Visual Growth Reduction (%) 21 Days After Application, TRZSS): 75 to 84%
GR10, TRZSS (TRZSS; [6]): 3 g ai/ha
GR20, TRZSS (TRZSS; [7]): 6 g ai/ha
pest or weed control at 35 g/ha (HORSS; Hordeum vulgare, post-emergence, 504 h, 35 g ai/ha, postemergence, read-out: Visual Growth Reduction (%) 21 Days After Application, HORSS): 60 to 74%
pest or weed control at 70 g/ha (HORSS; Hordeum vulgare, post-emergence, 504 h, 70 g ai/ha, postemergence, read-out: Visual Growth Reduction (%) 21 Days After Application, HORSS): 60 to 74%
pest or weed control at 140 g/ha (HORSS; Hordeum vulgare, post-emergence, 504 h, 140 g ai/ha, postemergence, read-out: Visual Growth Reduction (%) 21 Days After Application, HORSS): 75 to 84%
GR10, HORSS (HORSS; [6]): 2 g ai/ha
GR20, HORSS (HORSS; [7]): 5 g ai/ha
Visual Growth Reduction (%) 21 Days After Application, BRSSS (BRSSS; 35 g ai/ha): C (75-84)
Visual Growth Reduction (%) 21 Days After Application, BRSSS (BRSSS; 70 g ai/ha): B (85-94)
Visual Growth Reduction (%) 21 Days After Application, BRSSS (BRSSS; 140 g ai/ha): A (95-100)
GR50, BRSSS (BRSSS; [3]): 5 g ai/ha
GR80, BRSSS (BRSSS; [4]): 29 g ai/ha
GR90, BRSSS (BRSSS; [5]): 73 g ai/ha
pest or weed control at 35 g/ha (KCHSC (kochia); Bassia scoparia, post-emergence, 504 h, 35 g ai/ha, postemergence, read-out: Visual Growth Reduction (%) 21 Days After Application, KCHSC): 85 to 94%
pest or weed control at 70 g/ha (KCHSC (kochia); Bassia scoparia, post-emergence, 504 h, 70 g ai/ha, postemergence, read-out: Visual Growth Reduction (%) 21 Days After Application, KCHSC): 95 to 100%
pest or weed control at 140 g/ha (KCHSC (kochia); Bassia scoparia, post-emergence, 504 h, 140 g ai/ha, postemergence, read-out: Visual Growth Reduction (%) 21 Days After Application, KCHSC): 95 to 100%
GR50, KCHSC (KCHSC (kochia); [3]): 8 g ai/ha
GR80, KCHSC (KCHSC (kochia); [4]): 21 g ai/ha
GR90, KCHSC (KCHSC (kochia); [5]): 35 g ai/ha
Visual Growth Reduction (%) 21 Days After Application, SASKR (SASKR (Russian thistle); 35 g ai/ha): C (75-84)
Visual Growth Reduction (%) 21 Days After Application, SASKR (SASKR (Russian thistle); 70 g ai/ha): C (75-84)
Visual Growth Reduction (%) 21 Days After Application, SASKR (SASKR (Russian thistle); 140 g ai/ha): C (75-84)
GR50, SASKR (SASKR (Russian thistle); [3]): 1 g ai/ha
GR80, SASKR (SASKR (Russian thistle); [4]): 84 g ai/ha
GR90, SASKR (SASKR (Russian thistle); [5]): >140 g ai/ha
pest or weed control at 35 g/ha (APESV (windgrass); Apera spica-venti, post-emergence, 504 h, 35 g ai/ha, postemergence, read-out: Visual Growth Reduction (%) 21 Days After Application, APESV): 45 to 59%
pest or weed control at 70 g/ha (APESV (windgrass); Apera spica-venti, post-emergence, 504 h, 70 g ai/ha, postemergence, read-out: Visual Growth Reduction (%) 21 Days After Application, APESV): 60 to 74%
pest or weed control at 140 g/ha (APESV (windgrass); Apera spica-venti, post-emergence, 504 h, 140 g ai/ha, postemergence, read-out: Visual Growth Reduction (%) 21 Days After Application, APESV): 85 to 94%
GR50, APESV (APESV (windgrass); [3]): 32 g ai/ha
GR80, APESV (APESV (windgrass); [4]): 90 g ai/ha
GR90, APESV (APESV (windgrass); [5]): >140 g ai/ha
